Measured values reported in the supplement of paper PMC10307832.

How the values were obtained:
Assay in all cases: relative viability (nuclei count vs DMSO), 5 days (fraction); higher = more cells survive
[1] = compound: O=C(NC1CCNCC1)c1n[nH]cc1NC(=O)c1c(Cl)cccc1Cl [AT-7519] + COc1cccc2cc(-c3nc([C@H]4CC[C@H](C(=O)O)CC4)n4ncnc(N)c34)[nH]c12 [OSI-027] (partner 0.5 µM)
How it was run: (§1)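 Each reported value is a median over duplicate plates. It expresses relative viability: treated-well nuclei count divided by vehicle-well nuclei count. Lung cancer cell lines in 1536-well plates were dosed by pin tool a day after seeding, alone with one drug or with a fixed anchor-drug dose plus five library-drug doses (not always all listed) in √10 steps, and nuclei were counted after 5 days.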

[2] = compound: C1=CC2=C(C=C(C(=C2N=C1)O)N=NC3=CC4=C(C=C3)C=C(C=C4)S(=O)(=O)O)S(=O)(=O)O + C[C@@H](Oc1cc(-c2cnn(C3CCNCC3)c2)cnc1N)c1c(Cl)ccc(F)c1Cl [Crizotinib] (partner 1 µM)
How it was run: as §1

[3] = compound: C1=CC2=C(C=C(C(=C2N=C1)O)N=NC3=CC4=C(C=C3)C=C(C=C4)S(=O)(=O)O)S(=O)(=O)O + CCNC(=O)c1noc(-c2cc(C(C)C)c(O)cc2O)c1-c1ccc(CN2CCOCC2)cc1 [Luminespib] (partner 0.01 µM)
How it was run: as §1

[4] = compound: C1=CC2=C(C=C(C(=C2N=C1)O)N=NC3=CC4=C(C=C3)C=C(C=C4)S(=O)(=O)O)S(=O)(=O)O + Nc1nc2[nH]cc(CCc3ccc(C(=O)N[C@@H](CCC(=O)O)C(=O)O)cc3)c2c(=O)[nH]1 [Pemetrexed] (partner 0.2 µM)
How it was run: as §1

ChaGo-K-1
relative viability ([1]; first compound 0.01 µM): 0.642 | relative viability ([1]; first compound 0.03162 µM): 0.556 | relative viability ([1]; first compound 0.3162 µM): 0.457 | relative viability ([1]; first compound 1 µM): 0.447 | relative viability ([2]; first compound 0.08 µM): 1.12 | relative viability ([2]; first compound 0.253 µM): 1.16 | relative viability ([2]; first compound 0.8 µM): 1.13 | relative viability ([2]; first compound 2.53 µM): 1.21 | relative viability ([2]; first compound 8 µM): 1.12 | relative viability ([3]; first compound 0.08 µM): 0.558 | relative viability ([3]; first compound 0.253 µM): 0.573 | relative viability ([3]; first compound 0.8 µM): 0.587 | relative viability ([3]; first compound 2.53 µM): 0.595 | relative viability ([3]; first compound 8 µM): 0.553 | relative viability ([4]; first compound 0.08 µM): 0.256 | relative viability ([4]; first compound 0.253 µM): 0.257 | relative viability ([4]; first compound 0.8 µM): 0.272 | relative viability ([4]; first compound 2.53 µM): 0.256 | relative viability ([4]; first compound 8 µM): 0.242

EBC-1
relative viability ([2]; first compound 0.08 µM): 0.231 | relative viability ([2]; first compound 0.253 µM): 0.197 | relative viability ([2]; first compound 0.8 µM): 0.197 | relative viability ([2]; first compound 2.53 µM): 0.183 | relative viability ([2]; first compound 8 µM): 0.162

HCC-78
relative viability ([1]; first compound 0.01 µM): 0.386 | relative viability ([1]; first compound 0.03162 µM): 0.395 | relative viability ([1]; first compound 0.3162 µM): 0.349 | relative viability ([1]; first compound 1 µM): 0.341 | relative viability ([2]; first compound 0.08 µM): 0.388 | relative viability ([2]; first compound 0.253 µM): 0.336 | relative viability ([2]; first compound 0.8 µM): 0.328 | relative viability ([2]; first compound 2.53 µM): 0.337 | relative viability ([2]; first compound 8 µM): 0.203 | relative viability ([4]; first compound 0.08 µM): 0.915 | relative viability ([4]; first compound 0.253 µM): 0.922 | relative viability ([4]; first compound 0.8 µM): 0.902 | relative viability ([4]; first compound 2.53 µM): 0.887 | relative viability ([4]; first compound 8 µM): 0.908

HCC-366
relative viability ([1]; first compound 0.01 µM): 0.769 | relative viability ([1]; first compound 0.03162 µM): 0.808 | relative viability ([1]; first compound 0.3162 µM): 0.89 | relative viability ([1]; first compound 1 µM): 0.718 | relative viability ([2]; first compound 0.08 µM): 0.759 | relative viability ([2]; first compound 0.253 µM): 0.445 | relative viability ([2]; first compound 0.8 µM): 0.404 | relative viability ([2]; first compound 2.53 µM): 0.618 | relative viability ([2]; first compound 8 µM): 0.46 | relative viability ([4]; first compound 0.08 µM): 0.162 | relative viability ([4]; first compound 0.253 µM): 0.14 | relative viability ([4]; first compound 0.8 µM): 0.157 | relative viability ([4]; first compound 2.53 µM): 0.145 | relative viability ([4]; first compound 8 µM): 0.163

IA-LM
relative viability ([2]; first compound 0.08 µM): 1.16 | relative viability ([2]; first compound 0.253 µM): 0.602 | relative viability ([2]; first compound 0.8 µM): 0.822 | relative viability ([2]; first compound 2.53 µM): 0.757 | relative viability ([2]; first compound 8 µM): 0.9

NCI-H522
relative viability ([1]; first compound 0.03162 µM): 0.77 | relative viability ([1]; first compound 0.3162 µM): 0.609 | relative viability ([1]; first compound 1 µM): 0.792 | relative viability ([3]; first compound 0.08 µM): 1.21 | relative viability ([3]; first compound 0.253 µM): 1.19 | relative viability ([3]; first compound 0.8 µM): 0.983 | relative viability ([3]; first compound 2.53 µM): 1.16 | relative viability ([3]; first compound 8 µM): 1.11 | relative viability ([4]; first compound 0.08 µM): 0.949 | relative viability ([4]; first compound 0.253 µM): 1.03 | relative viability ([4]; first compound 0.8 µM): 1.04 | relative viability ([4]; first compound 2.53 µM): 0.971 | relative viability ([4]; first compound 8 µM): 1.09

NCI-H727
relative viability ([1]; first compound 0.01 µM): 0.68 | relative viability ([1]; first compound 0.03162 µM): 0.632 | relative viability ([1]; first compound 0.3162 µM): 0.517 | relative viability ([1]; first compound 1 µM): 0.408 | relative viability ([2]; first compound 0.08 µM): 1.17 | relative viability ([2]; first compound 0.253 µM): 0.76 | relative viability ([2]; first compound 0.8 µM): 0.798 | relative viability ([2]; first compound 2.53 µM): 0.936 | relative viability ([2]; first compound 8 µM): 0.772 | relative viability ([3]; first compound 0.08 µM): 0.478 | relative viability ([3]; first compound 0.253 µM): 0.45 | relative viability ([3]; first compound 0.8 µM): 0.327 | relative viability ([3]; first compound 2.53 µM): 0.346 | relative viability ([3]; first compound 8 µM): 0.359

NCI-H1299
relative viability ([2]; first compound 0.08 µM): 0.892 | relative viability ([2]; first compound 0.253 µM): 0.971 | relative viability ([2]; first compound 0.8 µM): 0.933 | relative viability ([2]; first compound 2.53 µM): 0.943 | relative viability ([2]; first compound 8 µM): 0.988

NCI-H1395
relative viability ([1]; first compound 0.01 µM): 0.659 | relative viability ([1]; first compound 0.03162 µM): 0.618 | relative viability ([1]; first compound 0.3162 µM): 0.525 | relative viability ([1]; first compound 1 µM): 0.62 | relative viability ([3]; first compound 0.08 µM): 0.851 | relative viability ([3]; first compound 0.253 µM): 0.859 | relative viability ([3]; first compound 0.8 µM): 0.806 | relative viability ([3]; first compound 2.53 µM): 0.701 | relative viability ([3]; first compound 8 µM): 0.786 | relative viability ([4]; first compound 0.08 µM): 0.814 | relative viability ([4]; first compound 0.253 µM): 0.816 | relative viability ([4]; first compound 0.8 µM): 0.68 | relative viability ([4]; first compound 2.53 µM): 0.763 | relative viability ([4]; first compound 8 µM): 0.782

NCI-H1648
relative viability ([1]; first compound 0.01 µM): 0.265 | relative viability ([1]; first compound 0.3162 µM): 0.262 | relative viability ([1]; first compound 1 µM): 0.293 | relative viability ([4]; first compound 0.253 µM): 0.695 | relative viability ([4]; first compound 8 µM): 0.855

NCI-H1703
relative viability ([2]; first compound 0.08 µM): 0.795 | relative viability ([2]; first compound 0.253 µM): 0.717 | relative viability ([2]; first compound 0.8 µM): 0.526 | relative viability ([2]; first compound 2.53 µM): 0.559 | relative viability ([2]; first compound 8 µM): 0.735

NCI-H1793
relative viability ([1]; first compound 0.01 µM): 0.229 | relative viability ([1]; first compound 0.03162 µM): 0.254 | relative viability ([1]; first compound 0.3162 µM): 0.285 | relative viability ([1]; first compound 1 µM): 0.247 | relative viability ([3]; first compound 0.08 µM): 0.22 | relative viability ([3]; first compound 0.253 µM): 0.189 | relative viability ([3]; first compound 0.8 µM): 0.184 | relative viability ([3]; first compound 2.53 µM): 0.264 | relative viability ([3]; first compound 8 µM): 0.16 | relative viability ([4]; first compound 0.08 µM): 1 | relative viability ([4]; first compound 0.253 µM): 0.844 | relative viability ([4]; first compound 0.8 µM): 0.799 | relative viability ([4]; first compound 2.53 µM): 0.841 | relative viability ([4]; first compound 8 µM): 0.888

NCI-H2342
relative viability ([1]; first compound 0.01 µM): 0.628 | relative viability ([1]; first compound 0.03162 µM): 0.533 | relative viability ([1]; first compound 0.3162 µM): 0.591 | relative viability ([1]; first compound 1 µM): 0.62 | relative viability ([3]; first compound 0.08 µM): 0.67 | relative viability ([3]; first compound 0.253 µM): 0.714 | relative viability ([3]; first compound 0.8 µM): 0.625 | relative viability ([3]; first compound 2.53 µM): 0.767 | relative viability ([3]; first compound 8 µM): 0.73 | relative viability ([4]; first compound 0.08 µM): 0.82 | relative viability ([4]; first compound 0.253 µM): 0.791 | relative viability ([4]; first compound 0.8 µM): 0.766 | relative viability ([4]; first compound 2.53 µM): 0.807 | relative viability ([4]; first compound 8 µM): 0.765

SW 900
relative viability ([1]; first compound 0.01 µM): 0.489 | relative viability ([1]; first compound 0.03162 µM): 0.581 | relative viability ([1]; first compound 0.3162 µM): 0.624 | relative viability ([1]; first compound 1 µM): 0.424 | relative viability ([3]; first compound 0.08 µM): 0.175 | relative viability ([3]; first compound 0.253 µM): 0.2 | relative viability ([3]; first compound 0.8 µM): 0.18 | relative viability ([3]; first compound 2.53 µM): 0.186 | relative viability ([3]; first compound 8 µM): 0.163 | relative viability ([4]; first compound 0.08 µM): 0.479 | relative viability ([4]; first compound 0.253 µM): 0.49 | relative viability ([4]; first compound 0.8 µM): 0.468 | relative viability ([4]; first compound 2.53 µM): 0.531 | relative viability ([4]; first compound 8 µM): 0.481
